This note sets out measurements from patent publication US20170275287A1, “NOVEL N2, N4, N7, 6-TETRASUBSTITUTED PTERIDINE-2,4,7-TRIAMINE AND 2, 4, 6, 7-TETRASUBSTITUTED PTERIDINE COMPOUNDS AND METHODS OF SYNTHESIS AND USE THEREOF” (Janus Biotherapeutics, Inc., priority 2014, published 2017).

The target in the assay is T1, TLR8 (Homo sapiens, UniProt Q9NR97).
T1 construct: PBMCs were isolated from unpurified buffy coat from healthy human donors; host or cells: primary human PBMCs
T1 sequence (Q9NR97 27-1041): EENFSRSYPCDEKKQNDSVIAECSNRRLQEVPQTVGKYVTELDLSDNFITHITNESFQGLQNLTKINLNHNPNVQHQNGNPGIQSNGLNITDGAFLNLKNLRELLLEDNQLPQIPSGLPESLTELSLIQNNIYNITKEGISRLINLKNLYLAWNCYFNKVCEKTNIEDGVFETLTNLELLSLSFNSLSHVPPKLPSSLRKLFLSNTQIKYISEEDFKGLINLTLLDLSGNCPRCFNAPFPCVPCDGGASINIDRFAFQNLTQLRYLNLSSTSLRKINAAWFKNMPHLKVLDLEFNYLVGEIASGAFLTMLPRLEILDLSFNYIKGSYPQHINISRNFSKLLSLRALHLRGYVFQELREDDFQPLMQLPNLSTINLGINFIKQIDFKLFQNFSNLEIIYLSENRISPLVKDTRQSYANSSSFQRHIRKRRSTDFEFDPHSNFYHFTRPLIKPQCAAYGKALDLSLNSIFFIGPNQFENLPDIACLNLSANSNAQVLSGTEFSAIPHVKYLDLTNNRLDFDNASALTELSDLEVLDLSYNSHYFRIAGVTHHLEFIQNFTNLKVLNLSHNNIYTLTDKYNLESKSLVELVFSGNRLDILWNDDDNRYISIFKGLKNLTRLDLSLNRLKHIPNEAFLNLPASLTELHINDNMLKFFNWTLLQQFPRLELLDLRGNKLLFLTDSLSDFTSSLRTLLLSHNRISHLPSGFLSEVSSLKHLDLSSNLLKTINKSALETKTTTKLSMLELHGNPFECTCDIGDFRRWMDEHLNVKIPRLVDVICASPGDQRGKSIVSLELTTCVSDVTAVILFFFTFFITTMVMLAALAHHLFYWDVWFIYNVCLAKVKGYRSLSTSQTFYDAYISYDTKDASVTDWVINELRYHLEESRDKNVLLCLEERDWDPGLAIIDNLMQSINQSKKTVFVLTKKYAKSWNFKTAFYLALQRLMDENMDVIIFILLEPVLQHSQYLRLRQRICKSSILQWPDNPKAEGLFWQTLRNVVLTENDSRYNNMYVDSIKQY
Description: TLR8 antagonist assay in human PBMCs (ORN1075, TNFα ELISA). As to conditions: human PBMC, 0.5 μM ORN1075, TNFα readout. It is filed as cell-based. As to the method:
PBMCs were isolated from unpurified buffy coat from healthy human donors (Blood Research Components, LLC). For antagonist testing, cells were plated on 96-well U-bottom plates at 3×10^6 cells/ml. Antagonist compounds were added to cells in duplicate wells and titrated from 10 μM in 1:3 serial dilutions (8 antagonist concentrations tested in total). After approximately 30 minutes, cells were stimulated with agonist compound (see table 2 for agonist concentrations). After stimulation, cells were incubated overnight at 37° C. To increase the stability of the ssRNA, 3 μg/ml DOTAP (Roche) was added to ORN1075 agonist solutions. All dilutions were made in RPMI-1640 media (Sigma, cat.# R7388)+5% human male AB sera (Sigma, cat.# H4522)+1× Penicillin/Streptomycin solution (VWR, cat.#82026-730).
TLR activity was measured in PBMCs and neutrophils by ELISA using cytokine readouts specific for the TLR of interest.
TNFα was used as a readout for TLR8 activity in PBMCs and neutrophils stimulated with ORN1075 (See Table 3 for concentrations) using the ELISA Max™ Deluxe Set Human TNFα kit (BioLegend, cat.#430206). Supernatant from PBMCs was diluted 1:50 and from neutrophils at 1:3 in 1× Assay Diluent (BioLegend). ELISAs were run according to the kit product specifications. Absorbance at 450 nm was recorded using a Molecular Devices SpectraMax340PC plate reader. The IC50 for each antagonist was subsequently calculated following the method described below.
Raw ELISA datasets for each 96-well plate, consisting of absorbance readings at […], were first imported in Microsoft Excel to calculate the average absorbance for each standard or antagonist concentration. The averaged data was then imported into SigmaPlot v.11.0 where a standard curve was calculated and used to extrapolate the relative concentration of TLR readout (TNFα, IFNα, etc.) produced. The dose-response curve of each antagonist was then plotted with SigmaPlot v.11.0 on a Log scale. Concentrations of TLR readout were converted to a percentage relative to the average maximum concentration for that ELISA plate in Microsoft Excel. The IC50 for each antagonist was then determined with the SigmaPlot regression wizard using a 4-parameter Hill equation. Each antagonist was tested in a minimum of 3 independent experiments and IC50 results were compiled and averaged using Microsoft Excel.
The molecule `CN1CCN(c2nc(NCCN3CCOCC3)c3ncc(-c4ccccc4)nc3n2)CC1` [JB6059] came in with an IC50 of 273 nM. This lies in the sub-micromolar range.

In the case of `CN1CCN(c2nc3nc(-c4ccccc4)nc(NCCN4CCOCC4)c3nc2OCCN2CCOCC2)CC1` [JB6116], 658 nM corresponded to half-maximal inhibition (IC50).

The molecule `CN1CCN(c2nc(NCCN3CCOCC3)c3nc(Cl)c(NCCN4CCOCC4)nc3n2)CC1` [JB6121, 6-chloro-2-(4-methylpiperazin-1-yl)-N^4,N^7-bis(2-morpholinoethyl)pteridine-4,7-diamine] registered an IC50 of 514 nM.

Regarding `CCOc1nc2c(NCCN3CCCC3)nc(-c3ccccc3)nc2nc1N1CCN(C)CC1` [JB6131], 78 nM corresponded to half-maximal inhibition (IC50).

Regarding `CCCCNc1nc(NCCN2CCOCC2)c2nc(Cl)c(NCCN3CCOCC3)nc2n1` [JB6140], the IC50 came out at 754 nM.

As to `C[C@@H]1CN(CCNc2nc3nc(N4CCN(C)CC4)nc(NCCN4C[C@@H](C)O[C@@H](C)C4)c3nc2Cl)C[C@H](C)O1` [JB6143], it took 263 nM to reach half-maximal inhibition (IC50).

As for `Clc1nc2c(NCCN3CCOCC3)nc(N3CCOCC3)nc2nc1NCCN1CCOCC1` [JB6147], half-maximal inhibition (IC50) was put at 7300 nM.

The molecule `COCCN1CCN(c2nc(NCCN3CCOCC3)c3nc(Cl)c(NCCN4CCOCC4)nc3n2)CC1` [JB6160] yielded a 50% inhibitory concentration (IC50) of 219 nM.

For the molecule `Clc1nc2c(NCCN3CCOCC3)nc(NCc3ccccc3)nc2nc1NCCN1CCOCC1` [JB6172], the IC50 was 246 nM.

As to `CCOc1nc2c(NCCN3CCOCC3)nc(NCc3ccccc3)nc2nc1NCCN1CCOCC1` [JB6180], the IC50 stood at 151 nM.

Consider `CCCCNc1nc(NCCN2CCOCC2)c2nc(SCC)c(NCCN3CCOCC3)nc2n1` [JB6185], for which the IC50 amounted to 136 nM.

As usually defined, the IC50 is the point on the concentration scale where inhibition reaches its midpoint. Low values mean greater potency, high ones weaker potency.
